{"source": "patent US20050279350A1", "about": "“Methods and apparatus for relieving headaches, rhinitis and other common ailments” (priority 1999, published 2005)", "system": "human subjects with allergies (allergic rhinitis)", "format": "in vivo", "conditions": "for 24-hr. Recur Rate / After Effects / Symptom Free, Minutes Post-Treatment / Symptom, Relief, Minutes Post-Treatment: moderate, severe; for Est. Rate / Est. Total Dose / Number of Doses / Single Dose Duration / Total Dose / Total Treatment Time: self-selected effective dose", "description": "The test device was a hand-held, multi-dose, disposable, dispenser that was approximately 3 to 4 inches long and 6/8 to ⅞ inches in diameter constructed as described above. The device consisted of a plastic twist-top flow regulator mounted on top of a pressurized steel cartridge containing liquid carbon dioxide. The tip of the flow regulator has a nosepiece that is the optimal size and configuration to place against and seal off a nostril for administration of the gas. In a number of subjects, the effective nasal and oral carbon dioxide flow rates, and maximum tolerable nasal and oral flow rates, were measured using a laboratory apparatus. This apparatus consisted of a flow regulator connected via tubing to a flow meter and a large tank of carbon dioxide. These flow data were used, together with the number of seconds gas was administered during therapy, to calculate the estimated dose of gas in milliliters.\nOf the total of 15 subjects included in the analysis, 11 used the treatment for 35 headaches and 9 subjects used it for 9 allergy attacks. […] subjects treated both headache and allergy but on different days. The subjects included adults, elderly, and children of both sexes in good general health, having mild, moderate, and severe headaches or having allergies to plant, animal, or airborne allergens. The device was used to treat migraine and tension-type headaches, jaw pain, and allergies (allergic rhinitis, with symptoms that included sinus congestion, sneezing, and itchy throat and eyes). There was no limitation on the duration of symptoms before treatment with the device. Subjects with no prior use of the device and those who have used it (to treat allergy symptoms) previously were included.\nCarbon dioxide (100%) was administered nasally by the subject for a few seconds via a nostril to fill the nasal passages while holding their breath, or taking breaths of room air occasionally if the dose was lengthy. The gas exited the other nostril. Such nasal administration is similar to presently marketed nasal inhalers except that the administered gas was not inhaled. […] Subjects took as many doses as they needed for relief. It is important to note that there were no number of doses, duration of dose, time between doses, or gas flow rate specified for the user. Subjects chose their own regimen for symptom relief. Similarly, in medical practice today, gas therapy is a “titrate to effect” therapy without a specified dosage.\nFor allergy, the rating of the intensity level depends on the extent to which the allergy interferes with the ability to function. […] The same outcome measures as for headache were used for allergy.", "key": {"[1]": {"conditions": "Allergy (N = 8), more stringent outcome measure definitions"}, "[2]": {"conditions": "Allergy (N = 8), more stringent outcome measure definitions, 1 min post-treatment"}, "[3]": {"conditions": "Allergy (N = 8), more stringent outcome measure definitions, 5 min post-treatment"}, "[4]": {"conditions": "Allergy (N = 8), more stringent outcome measure definitions, 15 min post-treatment"}, "[5]": {"conditions": "Allergy (N = 8), more stringent outcome measure definitions, 30 min post-treatment"}, "[6]": {"conditions": "Allergy (N = 9), mild, 1 min post-treatment"}, "[7]": {"conditions": "Allergy (N = 9), mild, 5 min post-treatment"}, "[8]": {"conditions": "Allergy (N = 9), mild, 15 min post-treatment"}, "[9]": {"conditions": "Allergy (N = 9), mild, 30 min post-treatment"}}, "note": "Read-outs that look alike come from different tables or passages of the source. Marks after values point to notes of the source that are not given here.", "data": [{"compound": "O=C=O", "note": "[carbon dioxide]", "values": [{"measurement": "24-hr. Recur Rate", "setting": "[1]", "value": 50, "unit": "%"}, {"measurement": "After Effects", "setting": "[1]", "value": 0, "unit": "%"}, {"measurement": "Symptom Free, Minutes Post-Treatment", "setting": "[2]", "value": 25, "unit": "%"}, {"measurement": "Symptom, Relief, Minutes Post-Treatment", "setting": "[2]", "value": 25, "unit": "%"}, {"measurement": "Symptom Free, Minutes Post-Treatment", "setting": "[3]", "value": 63, "unit": "%"}, {"measurement": "Symptom, Relief, Minutes Post-Treatment", "setting": "[3]", "value": 75, "unit": "%"}, {"measurement": "Symptom Free, Minutes Post-Treatment", "setting": "[4]", "value": 88, "unit": "%"}, {"measurement": "Symptom, Relief, Minutes Post-Treatment", "setting": "[4]", "value": 100, "unit": "%"}, {"measurement": "Symptom Free, Minutes Post-Treatment", "setting": "[5]", "value": 88, "unit": "%"}, {"measurement": "Symptom, Relief, Minutes Post-Treatment", "setting": "[5]", "value": 100, "unit": "%"}, {"measurement": "After Effects", "setting": "Allergy (N = 9), mild", "value": 0, "unit": "%"}, {"measurement": "Symptom Free, Minutes Post-Treatment", "setting": "[6]", "value": 33, "unit": "%"}, {"measurement": "Symptom, Relief, Minutes Post-Treatment", "setting": "[6]", "value": 33, "unit": "%"}, {"measurement": "Symptom Free, Minutes Post-Treatment", "setting": "[7]", "value": 67, "unit": "%"}, {"measurement": "Symptom, Relief, Minutes Post-Treatment", "setting": "[7]", "value": 78, "unit": "%"}, {"measurement": "Symptom Free, Minutes Post-Treatment", "setting": "[8]", "value": 89, "unit": "%"}, {"measurement": "Symptom, Relief, Minutes Post-Treatment", "setting": "[8]", "value": 100, "unit": "%"}, {"measurement": "Symptom Free, Minutes Post-Treatment", "setting": "[9]", "value": 89, "unit": "%"}, {"measurement": "Symptom, Relief, Minutes Post-Treatment", "setting": "[9]", "value": 100, "unit": "%"}, {"measurement": "24-hr. Recur Rate", "setting": "Allergy (N = 9), mild, N=4 for this determination", "value": 50, "unit": "%"}, {"measurement": "Est. Rate", "setting": "Allergy-All", "value": 3, "unit": "mL/s"}, {"measurement": "Est. Total Dose", "setting": "Allergy-All", "value": 133, "unit": "mL"}, {"measurement": "Number of Doses", "setting": "Allergy-All", "value": "2 #"}, {"measurement": "Single Dose Duration", "setting": "Allergy-All", "value": 13, "unit": "s"}, {"measurement": "Total Dose", "setting": "Allergy-All", "value": 39, "unit": "s"}, {"measurement": "Total Treatment Time", "setting": "Allergy-All", "value": 5, "unit": "min"}, {"measurement": "Est. Rate", "setting": "Allergy-Mild", "value": 5, "unit": "mL/s"}, {"measurement": "Est. Total Dose", "setting": "Allergy-Mild", "value": 200, "unit": "mL"}, {"measurement": "Number of Doses", "setting": "Allergy-Mild", "value": "2 #"}, {"measurement": "Single Dose Duration", "setting": "Allergy-Mild", "value": 15, "unit": "s"}, {"measurement": "Total Dose", "setting": "Allergy-Mild", "value": 40, "unit": "s"}, {"measurement": "Total Treatment Time", "setting": "Allergy-Mild", "value": ">0.7", "unit": "min"}, {"measurement": "Est. Rate", "setting": "Allergy-Moderate", "value": 2, "unit": "mL/s"}, {"measurement": "Est. Total Dose", "setting": "Allergy-Moderate", "value": 31, "unit": "mL"}, {"measurement": "Number of Doses", "setting": "Allergy-Moderate", "value": "2 #"}, {"measurement": "Single Dose Duration", "setting": "Allergy-Moderate", "value": 3, "unit": "s"}, {"measurement": "Total Dose", "setting": "Allergy-Moderate", "value": 16, "unit": "s"}, {"measurement": "Total Treatment Time", "setting": "Allergy-Moderate", "value": ">0.2", "unit": "min"}, {"measurement": "Est. Rate", "setting": "Allergy-Severe", "value": 4, "unit": "mL/s"}, {"measurement": "Est. Total Dose", "setting": "Allergy-Severe", "value": 156, "unit": "mL"}, {"measurement": "Number of Doses", "setting": "Allergy-Severe", "value": "2 #"}, {"measurement": "Single Dose Duration", "setting": "Allergy-Severe", "value": 17, "unit": "s"}, {"measurement": "Total Dose", "setting": "Allergy-Severe", "value": 46, "unit": "s"}, {"measurement": "Total Treatment Time", "setting": "Allergy-Severe", "value": ">3.9", "unit": "min"}, {"measurement": "efficacy", "setting": "allergic rhinitis, occurring in seconds to minutes", "value": "88-100%"}, {"measurement": "adverse after effects of treatment", "setting": "allergy subjects", "value": "No subjects reported any adverse after effects"}, {"measurement": "onset of symptom relief", "setting": "allergy, while administering the first dose", "value": "immediate onset of symptom relief within seconds"}, {"measurement": "oral versus nasal administration", "setting": "oral administration via pursed lips, allergic inflammation extending into the oral cavity", "value": "more effective"}, {"measurement": "time of recurrence of allergy symptoms post-treatment", "setting": "recurrences", "value": "≥ 3", "unit": "h"}]}]}
